The values below come from ChEMBL document CHEMBL5113546, “Novel SMARCA Degraders for Treating Cancer” (ACS Med Chem Lett, 2022).

The term DC50 denotes the concentration at which degradation of the target reaches its halfway point.

The target of the assay is SWI/SNF-related matrix-associated actin-dependent regulator of chromatin subfamily A member 2 (Homo sapiens, UniProt P51531). Nature of the assay: Induction of SMARCA2 degradation in human A549 cells measured after 24 hrs by MSD assay. It counts as cell-based.
Chain of SWI/SNF-related matrix-associated actin-dependent regulator of chromatin subfamily A member 2 (P51531 whole entry): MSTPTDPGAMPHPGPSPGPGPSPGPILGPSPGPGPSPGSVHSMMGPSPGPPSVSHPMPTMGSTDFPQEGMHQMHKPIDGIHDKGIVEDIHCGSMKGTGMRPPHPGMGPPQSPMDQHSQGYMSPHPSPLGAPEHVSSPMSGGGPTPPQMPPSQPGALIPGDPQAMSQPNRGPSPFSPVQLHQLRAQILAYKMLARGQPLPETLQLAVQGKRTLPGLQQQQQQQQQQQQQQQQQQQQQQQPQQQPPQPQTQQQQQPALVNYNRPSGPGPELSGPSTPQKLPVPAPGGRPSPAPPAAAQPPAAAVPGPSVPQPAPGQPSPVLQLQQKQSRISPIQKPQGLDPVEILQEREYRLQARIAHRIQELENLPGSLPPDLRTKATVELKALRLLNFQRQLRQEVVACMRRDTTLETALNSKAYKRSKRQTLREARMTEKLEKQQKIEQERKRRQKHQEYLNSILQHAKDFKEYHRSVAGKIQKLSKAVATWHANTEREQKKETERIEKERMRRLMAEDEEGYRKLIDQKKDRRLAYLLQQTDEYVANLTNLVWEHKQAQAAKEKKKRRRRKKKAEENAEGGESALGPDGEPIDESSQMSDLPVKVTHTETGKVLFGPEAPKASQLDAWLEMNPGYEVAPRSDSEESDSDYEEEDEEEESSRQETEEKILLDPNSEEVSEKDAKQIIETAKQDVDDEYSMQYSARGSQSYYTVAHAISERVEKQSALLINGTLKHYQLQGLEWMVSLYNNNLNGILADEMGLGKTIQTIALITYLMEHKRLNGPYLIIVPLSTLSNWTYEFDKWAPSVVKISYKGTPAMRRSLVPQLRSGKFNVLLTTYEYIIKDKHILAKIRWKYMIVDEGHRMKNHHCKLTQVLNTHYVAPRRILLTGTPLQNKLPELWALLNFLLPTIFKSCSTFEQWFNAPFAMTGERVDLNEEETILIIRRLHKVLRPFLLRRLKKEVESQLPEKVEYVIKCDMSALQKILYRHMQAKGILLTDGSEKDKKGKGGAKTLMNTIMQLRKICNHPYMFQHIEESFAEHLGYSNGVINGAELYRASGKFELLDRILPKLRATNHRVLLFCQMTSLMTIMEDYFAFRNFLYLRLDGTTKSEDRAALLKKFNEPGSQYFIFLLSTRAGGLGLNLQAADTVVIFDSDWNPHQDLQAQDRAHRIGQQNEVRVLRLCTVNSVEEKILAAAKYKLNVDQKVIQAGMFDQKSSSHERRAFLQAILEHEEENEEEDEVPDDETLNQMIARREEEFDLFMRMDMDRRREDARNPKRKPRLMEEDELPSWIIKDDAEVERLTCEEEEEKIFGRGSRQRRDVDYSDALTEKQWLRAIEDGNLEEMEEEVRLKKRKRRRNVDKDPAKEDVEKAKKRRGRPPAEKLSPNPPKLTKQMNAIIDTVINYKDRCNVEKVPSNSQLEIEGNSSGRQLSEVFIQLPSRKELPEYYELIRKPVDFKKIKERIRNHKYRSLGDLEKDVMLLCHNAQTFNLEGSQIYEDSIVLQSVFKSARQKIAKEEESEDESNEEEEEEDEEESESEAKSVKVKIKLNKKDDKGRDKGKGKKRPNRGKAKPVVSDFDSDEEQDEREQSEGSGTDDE
As for `Cc1ncsc1-c1ccc(CNC(=O)[C@@H]2C[C@@H](O)CN2C(=O)[C@@H](NC(=O)[C@H]2CC3(C2)C[C@H](N2CCN(c4cnc(N5C6CCC5CN(c5cc(-c7ccccc7O)nnc5N)C6)nc4)CC2)C3)C(C)(C)C)cc1` (stereo partly specified), the DC50 was less than 100 nM.
Turning to `Cc1ncsc1-c1ccc(CNC(=O)[C@@H]2C[C@@H](O)CN2C(=O)C(c2cc(OCCN3CCC(c4cnc(N5C6CCC5CN(c5cc(-c7ccccc7O)nnc5N)C6)nc4)CC3)no2)C(C)C)cc1` (stereo partly specified), the DC50 was less than 100 nM.
With `Cc1ncsc1-c1ccc(CNC(=O)[C@@H]2C[C@@H](O)CN2C(=O)[C@@H](NC(=O)[C@H]2CC3(CC[C@H](N4CCC(c5cnc(N6C7CCC6CN(c6cc(-c8ccccc8O)nnc6N)C7)nc5)CC4)CC3)C2)C(C)(C)C)cc1` (stereo partly specified), the DC50 is less than 100 nM.
The value for `Cc1ncsc1-c1ccc([C@H](C)NC(=O)[C@@H]2C[C@@H](O)CN2C(=O)[C@@H](NC(=O)[C@H]2CC3(C2)C[C@H](N2CCC(c4cnc(N5C6CCC5CN(c5cc(-c7ccccc7O)nnc5N)C6)nc4)CC2)C3)C(C)(C)C)cc1` (stereo partly specified) was less than 100 nM; that for `Cc1ncsc1-c1ccc(CNC(=O)[C@@H]2C[C@@H](O)CN2C(=O)C(c2cc(OCCCCN3CCC(c4cnc(N5C6CCC5CN(c5cc(-c7ccccc7O)nnc5N)C6)nc4)CC3)no2)C(C)C)cc1` (stereo partly specified) was less than 100 nM; that for `Cc1ncsc1-c1ccc(C2(NC(=O)[C@@H]3C[C@@H](O)CN3C(=O)[C@@H](NC(=O)[C@H]3CC4(C3)C[C@H](N3CCC(c5cnc(N6C7CCC6CN(c6cc(-c8ccccc8O)nnc6N)C7)nc5)CC3)C4)C(C)(C)C)CC2)cc1` (stereo partly specified) was less than 100 nM.
